Reference: ChEMBL document CHEMBL5291721, “A preclinical secondary pharmacology resource illuminates target-adverse drug reaction associations of marketed drugs” (Nat Commun, 2023)

Assays:
[1] = target: 3',5'-cyclic-AMP phosphodiesterase 4D (Homo sapiens, UniProt Q08499); type: functional
[2] = target: Sodium-dependent dopamine transporter (Homo sapiens, UniProt Q01959)
[3] = target: Vascular endothelial growth factor receptor 2 (Homo sapiens, UniProt P35968); type: functional
[4] = target: T1, Muscarinic acetylcholine receptor M2 (Homo sapiens, UniProt P08172); type: functional, cell-based
T1 sequence (P08172 whole entry): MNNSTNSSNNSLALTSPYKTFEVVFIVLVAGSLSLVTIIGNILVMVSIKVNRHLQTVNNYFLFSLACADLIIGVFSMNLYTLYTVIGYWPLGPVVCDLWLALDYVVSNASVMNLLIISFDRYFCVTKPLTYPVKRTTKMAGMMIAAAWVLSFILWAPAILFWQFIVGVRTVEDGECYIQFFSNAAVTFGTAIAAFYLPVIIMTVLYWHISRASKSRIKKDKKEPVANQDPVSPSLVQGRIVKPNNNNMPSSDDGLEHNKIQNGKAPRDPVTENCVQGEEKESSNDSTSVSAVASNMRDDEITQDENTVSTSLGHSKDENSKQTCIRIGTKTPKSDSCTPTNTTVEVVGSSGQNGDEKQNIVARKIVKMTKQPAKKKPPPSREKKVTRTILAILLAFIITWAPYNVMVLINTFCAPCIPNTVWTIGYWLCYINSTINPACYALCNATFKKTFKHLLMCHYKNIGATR

[5] = target: T1, Muscarinic acetylcholine receptor M2; type: functional, cell-based; remark: listed apart in the source
[6] = target: T2, Prostaglandin G/H synthase 1 (Rattus norvegicus, UniProt Q63921); type: functional
T2 sequence (Q63921 whole entry): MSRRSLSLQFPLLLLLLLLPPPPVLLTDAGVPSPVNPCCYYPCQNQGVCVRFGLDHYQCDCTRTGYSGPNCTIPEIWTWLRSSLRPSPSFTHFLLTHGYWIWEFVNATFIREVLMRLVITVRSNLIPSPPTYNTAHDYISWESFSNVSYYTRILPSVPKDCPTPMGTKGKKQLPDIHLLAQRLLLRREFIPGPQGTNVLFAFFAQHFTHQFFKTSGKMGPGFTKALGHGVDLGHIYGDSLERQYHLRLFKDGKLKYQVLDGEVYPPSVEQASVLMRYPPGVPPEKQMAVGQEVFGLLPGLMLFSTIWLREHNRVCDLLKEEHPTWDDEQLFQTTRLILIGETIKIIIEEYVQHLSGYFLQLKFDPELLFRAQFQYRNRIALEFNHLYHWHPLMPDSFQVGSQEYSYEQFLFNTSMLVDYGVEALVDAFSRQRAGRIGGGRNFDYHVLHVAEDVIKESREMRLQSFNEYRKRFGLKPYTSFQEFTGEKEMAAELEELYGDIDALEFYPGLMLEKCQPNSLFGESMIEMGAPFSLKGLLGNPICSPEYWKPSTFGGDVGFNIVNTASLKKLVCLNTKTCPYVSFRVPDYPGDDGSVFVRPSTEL

Androgen receptor = target: T3, Androgen receptor (Homo sapiens, UniProt P10275)
T3 sequence (P10275 whole entry): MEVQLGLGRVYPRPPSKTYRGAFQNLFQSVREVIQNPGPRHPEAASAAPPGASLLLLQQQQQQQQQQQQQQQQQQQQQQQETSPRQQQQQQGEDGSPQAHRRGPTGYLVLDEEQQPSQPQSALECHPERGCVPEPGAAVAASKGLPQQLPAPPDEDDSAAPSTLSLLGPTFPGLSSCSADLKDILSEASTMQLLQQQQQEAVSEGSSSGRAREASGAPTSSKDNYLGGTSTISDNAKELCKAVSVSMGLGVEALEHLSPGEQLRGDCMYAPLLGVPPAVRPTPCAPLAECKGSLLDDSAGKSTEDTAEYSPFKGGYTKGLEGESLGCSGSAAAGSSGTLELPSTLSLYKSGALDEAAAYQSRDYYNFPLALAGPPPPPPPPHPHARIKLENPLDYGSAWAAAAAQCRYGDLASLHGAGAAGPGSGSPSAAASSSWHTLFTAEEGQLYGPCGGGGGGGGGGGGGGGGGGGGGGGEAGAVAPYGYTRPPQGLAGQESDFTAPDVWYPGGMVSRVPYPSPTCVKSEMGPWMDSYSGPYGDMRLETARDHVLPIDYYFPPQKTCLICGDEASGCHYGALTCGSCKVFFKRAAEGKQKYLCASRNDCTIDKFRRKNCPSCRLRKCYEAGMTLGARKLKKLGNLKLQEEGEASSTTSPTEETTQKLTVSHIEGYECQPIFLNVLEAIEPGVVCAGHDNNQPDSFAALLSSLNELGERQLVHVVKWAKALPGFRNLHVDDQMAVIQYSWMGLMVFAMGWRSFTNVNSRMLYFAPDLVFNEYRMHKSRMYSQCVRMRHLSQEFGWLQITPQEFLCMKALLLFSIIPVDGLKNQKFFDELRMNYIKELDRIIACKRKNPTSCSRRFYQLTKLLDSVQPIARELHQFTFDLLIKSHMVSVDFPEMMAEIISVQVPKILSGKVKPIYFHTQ

[7] = target: T4, Alpha-1A adrenergic receptor (Homo sapiens, UniProt P35348); type: functional, cell-based
T4 sequence (P35348 whole entry): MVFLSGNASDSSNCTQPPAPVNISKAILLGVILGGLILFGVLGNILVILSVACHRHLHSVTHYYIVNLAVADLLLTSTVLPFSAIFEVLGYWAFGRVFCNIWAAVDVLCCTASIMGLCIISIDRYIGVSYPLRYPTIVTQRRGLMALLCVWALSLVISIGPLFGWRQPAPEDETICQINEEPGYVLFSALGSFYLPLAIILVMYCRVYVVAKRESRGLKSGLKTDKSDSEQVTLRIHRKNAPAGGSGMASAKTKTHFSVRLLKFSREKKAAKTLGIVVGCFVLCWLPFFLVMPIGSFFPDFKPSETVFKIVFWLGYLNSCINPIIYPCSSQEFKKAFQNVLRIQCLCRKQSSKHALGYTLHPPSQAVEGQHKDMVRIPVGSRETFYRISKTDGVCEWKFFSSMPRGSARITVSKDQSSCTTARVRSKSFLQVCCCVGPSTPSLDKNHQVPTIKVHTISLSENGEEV

[8] = target: T4, Alpha-1A adrenergic receptor; type: functional, cell-based; remark: listed apart in the source
[9] = target: 5-hydroxytryptamine receptor 2B (Homo sapiens, UniProt P41595); type: functional, cell-based
Also: assay procedure not described here.

Chain of Vascular endothelial growth factor receptor 2 (P35968 whole entry): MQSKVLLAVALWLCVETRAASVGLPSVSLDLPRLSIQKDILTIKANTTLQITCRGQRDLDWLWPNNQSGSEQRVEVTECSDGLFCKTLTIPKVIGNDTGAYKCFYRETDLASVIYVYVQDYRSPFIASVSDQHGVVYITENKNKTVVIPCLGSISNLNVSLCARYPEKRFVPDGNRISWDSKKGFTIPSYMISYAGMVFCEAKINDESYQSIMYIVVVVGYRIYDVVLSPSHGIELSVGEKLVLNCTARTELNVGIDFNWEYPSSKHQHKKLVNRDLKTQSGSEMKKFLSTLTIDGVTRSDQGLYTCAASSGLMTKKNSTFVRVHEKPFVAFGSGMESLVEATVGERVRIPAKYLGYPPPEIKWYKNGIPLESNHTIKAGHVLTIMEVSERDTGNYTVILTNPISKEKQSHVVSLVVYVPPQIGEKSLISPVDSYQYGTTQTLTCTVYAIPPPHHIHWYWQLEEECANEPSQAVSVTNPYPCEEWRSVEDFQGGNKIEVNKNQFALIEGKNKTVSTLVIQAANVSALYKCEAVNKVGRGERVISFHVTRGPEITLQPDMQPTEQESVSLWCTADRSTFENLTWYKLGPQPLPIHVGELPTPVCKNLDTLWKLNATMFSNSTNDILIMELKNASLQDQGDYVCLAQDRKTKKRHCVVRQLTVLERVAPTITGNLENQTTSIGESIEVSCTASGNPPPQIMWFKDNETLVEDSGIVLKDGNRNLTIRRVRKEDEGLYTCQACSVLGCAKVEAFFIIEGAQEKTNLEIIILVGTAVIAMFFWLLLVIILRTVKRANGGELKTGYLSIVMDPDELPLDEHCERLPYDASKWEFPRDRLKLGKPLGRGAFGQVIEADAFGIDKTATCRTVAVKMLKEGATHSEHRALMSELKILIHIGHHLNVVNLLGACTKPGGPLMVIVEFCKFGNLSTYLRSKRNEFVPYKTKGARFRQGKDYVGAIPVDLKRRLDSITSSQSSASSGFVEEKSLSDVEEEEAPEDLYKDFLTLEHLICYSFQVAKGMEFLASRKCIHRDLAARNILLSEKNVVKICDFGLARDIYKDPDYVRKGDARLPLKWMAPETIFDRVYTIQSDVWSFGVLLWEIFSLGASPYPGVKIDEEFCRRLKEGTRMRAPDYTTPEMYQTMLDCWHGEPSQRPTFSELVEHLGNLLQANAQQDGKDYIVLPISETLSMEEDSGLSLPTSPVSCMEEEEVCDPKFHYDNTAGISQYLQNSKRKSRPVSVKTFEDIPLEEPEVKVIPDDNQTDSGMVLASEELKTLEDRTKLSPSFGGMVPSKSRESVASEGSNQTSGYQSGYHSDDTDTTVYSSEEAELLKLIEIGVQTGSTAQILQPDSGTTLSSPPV
Chain of 3',5'-cyclic-AMP phosphodiesterase 4D (Q08499 whole entry): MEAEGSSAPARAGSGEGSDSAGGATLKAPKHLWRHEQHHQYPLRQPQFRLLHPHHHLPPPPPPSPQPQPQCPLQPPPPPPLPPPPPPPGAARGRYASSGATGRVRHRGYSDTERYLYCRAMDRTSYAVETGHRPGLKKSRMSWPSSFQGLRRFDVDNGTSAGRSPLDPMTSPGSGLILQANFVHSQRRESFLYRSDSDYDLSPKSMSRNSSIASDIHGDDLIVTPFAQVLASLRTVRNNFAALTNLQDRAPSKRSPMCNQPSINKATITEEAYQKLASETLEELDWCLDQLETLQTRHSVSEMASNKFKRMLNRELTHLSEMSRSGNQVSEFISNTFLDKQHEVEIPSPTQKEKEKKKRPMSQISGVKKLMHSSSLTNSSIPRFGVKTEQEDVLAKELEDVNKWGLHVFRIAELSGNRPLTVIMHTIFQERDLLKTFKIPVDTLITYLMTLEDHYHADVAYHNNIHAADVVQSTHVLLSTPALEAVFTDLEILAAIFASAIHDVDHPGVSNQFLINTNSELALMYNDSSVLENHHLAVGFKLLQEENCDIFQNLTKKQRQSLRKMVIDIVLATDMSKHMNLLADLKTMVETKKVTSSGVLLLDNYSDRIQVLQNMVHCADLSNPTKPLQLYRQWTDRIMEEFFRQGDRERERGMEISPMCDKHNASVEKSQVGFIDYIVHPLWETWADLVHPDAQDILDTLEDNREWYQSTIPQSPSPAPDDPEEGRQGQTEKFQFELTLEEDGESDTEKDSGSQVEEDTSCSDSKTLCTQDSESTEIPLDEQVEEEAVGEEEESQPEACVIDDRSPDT
Chain of 5-hydroxytryptamine receptor 2B (P41595 whole entry): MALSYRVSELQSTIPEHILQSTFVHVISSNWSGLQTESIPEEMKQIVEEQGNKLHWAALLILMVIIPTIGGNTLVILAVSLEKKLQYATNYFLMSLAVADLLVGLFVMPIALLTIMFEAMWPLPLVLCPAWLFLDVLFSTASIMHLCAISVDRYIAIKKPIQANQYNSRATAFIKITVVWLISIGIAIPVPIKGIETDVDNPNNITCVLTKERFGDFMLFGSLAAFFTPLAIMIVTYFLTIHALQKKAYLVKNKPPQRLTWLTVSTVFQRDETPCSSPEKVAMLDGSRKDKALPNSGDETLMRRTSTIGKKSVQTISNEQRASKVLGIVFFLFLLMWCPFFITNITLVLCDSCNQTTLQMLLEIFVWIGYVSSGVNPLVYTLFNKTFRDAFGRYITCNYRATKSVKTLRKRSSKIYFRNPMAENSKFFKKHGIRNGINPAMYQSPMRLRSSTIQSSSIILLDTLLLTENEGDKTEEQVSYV
Chain of Sodium-dependent dopamine transporter (Q01959 whole entry): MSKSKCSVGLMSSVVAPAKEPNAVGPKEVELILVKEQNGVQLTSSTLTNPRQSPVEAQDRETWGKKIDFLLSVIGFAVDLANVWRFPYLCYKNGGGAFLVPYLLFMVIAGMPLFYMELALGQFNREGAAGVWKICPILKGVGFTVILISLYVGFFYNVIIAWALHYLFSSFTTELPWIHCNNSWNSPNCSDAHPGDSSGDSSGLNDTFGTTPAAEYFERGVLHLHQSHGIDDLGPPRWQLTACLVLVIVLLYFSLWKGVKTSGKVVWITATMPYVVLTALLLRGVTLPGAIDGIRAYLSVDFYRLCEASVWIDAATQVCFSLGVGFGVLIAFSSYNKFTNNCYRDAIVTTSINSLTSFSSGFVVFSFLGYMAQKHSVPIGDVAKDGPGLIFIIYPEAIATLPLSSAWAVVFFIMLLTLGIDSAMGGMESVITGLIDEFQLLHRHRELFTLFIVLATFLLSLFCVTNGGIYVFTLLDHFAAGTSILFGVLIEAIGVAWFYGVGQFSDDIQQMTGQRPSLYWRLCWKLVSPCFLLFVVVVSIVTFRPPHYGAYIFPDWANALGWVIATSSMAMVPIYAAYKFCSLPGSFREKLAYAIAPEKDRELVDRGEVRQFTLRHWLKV

| Structure (SMILES) | AC50 [3] | AC50 (Androgen receptor) | further results |
| --- | --- | --- | --- |
| O=C(O)c1cccc(-c2noc(-c3ccccc3F)n2)c1 | > 30 µM |  | AC50 [1]: > 30 µM; AC50 [2]: > 30 µM; AC50 [4]: > 10 µM; AC50 [5]: > 10 µM; AC50 [6]: > 30 µM |
| Cc1c(O)cccc1C(=O)N[C@@H](CSc1ccccc1)[C@H](O)CN1C[C@H]2CCCC[C@H]2C[C@H]1C(=O)NC(C)(C)C | > 30 µM | > 30 µM |  |
| CCS(=O)(=O)N1CC(CC#N)(n2cc(-c3ncnc4[nH]ccc34)cn2)C1 [BARICITINIB] |  | > 30 µM |  |
| O=C1CN=C(c2ccccc2)c2c(sc3c2CCCC3)N1 [BENTAZEPAM] | > 30 µM | 1.24 µM |  |
| O=C(O)CCCN1CCC(O[C@@H](c2ccc(Cl)cc2)c2ccccn2)CC1 [BEPOTASTINE] | > 30 µM | > 30 µM |  |
| CCCC[N+]1(C)[C@@H]2C[C@@H](OC(=O)[C@H](CO)c3ccccc3)C[C@H]1[C@@H]1O[C@@H]12 (stereo not given in full) [BUTYLSCOPOLAMINE] | > 30 µM | > 30 µM |  |
| O=C(c1ccc(F)c(F)c1Nc1ccc(I)cc1F)N1CC(O)([C@@H]2CCCCN2)C1 [COBIMETINIB] | > 30 µM | > 30 µM |  |
| CN1CCN(C(c2ccccc2)c2ccccc2)CC1 [CYCLIZINE] | > 30 µM | > 30 µM |  |
| NS(=O)(=O)c1cc2c(cc1Cl)NC(C1CC3C=CC1C3)NS2(=O)=O (stereo not given) [CYCLOTHIAZIDE] | > 30 µM | > 30 µM |  |
| Nc1nc(-n2cc(C(=O)O)c(=O)c3cc(F)c(N4CC(O)C4)c(Cl)c32)c(F)cc1F [DELAFLOXACIN] | > 30 µM | > 30 µM |  |
| O=C(Nc1ccccc1)OCC(CN1CCCCC1)OC(=O)Nc1ccccc1 (stereo not given) [DIPERODON] | > 30 µM |  | AC50 [1]: > 10 µM; AC50 [2]: 6.69 µM; AC50 [7]: > 30 µM; AC50 [8]: > 30 µM; AC50 [9]: 15 µM; AC50 [4]: > 30 µM; AC50 [5]: > 30 µM; AC50 [6]: > 30 µM |
| CCOc1ccc(/C=C2\NCCc3cc(OCC)c(OCC)cc32)cc1OCC [DROTAVERINE] | > 30 µM | > 30 µM |  |
| N/N=c1/cc2c(n[nH]1)CCN(C(=O)c1ccccc1)C2 [ENDRALAZINE] |  | > 30 µM | AC50 [1]: > 30 µM; AC50 [7]: > 30 µM; AC50 [8]: > 30 µM; AC50 [9]: > 30 µM |
| CCOC(=O)C(c1c(O)c2ccccc2oc1=O)c1c(O)c2ccccc2oc1=O [ETHYL BISCOUMACETATE] | > 30 µM | > 30 µM |  |
| Cc1nc(-c2ccc(OCC(C)C)c(C#N)c2)sc1C(=O)O [FEBUXOSTAT] | > 30 µM | > 30 µM |  |
| C[C@@H]1C[C@H]2[C@@H]3C[C@H](F)C4=CC(=O)C=C[C@]4(C)[C@@]3(F)[C@@H](O)C[C@]2(C)[C@@]1(O)C(=O)COC(=O)C(C)(C)C [FLUMETHASONE PIVALATE] | > 30 µM | 1.4 µM |  |
| C[C@@H]1C[C@H]2[C@@H]3C[C@H](F)C4=CC(=O)C(Cl)=C[C@]4(C)[C@@]3(F)[C@@H](O)C[C@]2(C)[C@@]1(O)C(=O)CO [HALOMETASONE] | > 30 µM | 10.3 µM |  |
| CC(C)Cc1ccc(C(C)C(=O)NO)cc1 (stereo not given) [IBUPROXAM] | > 30 µM | > 30 µM |  |
| Oc1c(I)cc(I)c2cccnc12 [IODOQUINOL] | > 30 µM |  |  |
